Laboratory results as given in patent publication US20230054379A1, “COMPOSITION AND METHOD OF TREATMENT TO SIMU[…] THE […] EFFICACY OF OPIOIDS AND REDUCE THEIR ADDICTIVE POWER” (Centro de Investigacion Y Desarrollo de Medicamentos (CIDEM), priority 2020, published 2023).
“And” between values parts separate entries of the source, which are not always exact repeats. Equal values may be shown once. Read-outs that look alike come from different tables or passages of the source. Marks after values point to notes of the source that are not given here.

What was measured:
[1] = Morphine-induced tolerance/hyperalgesia in healthy rats (von Frey filaments, electronic von Frey, hot plate, formalin test); type: in vivo, rat
From the text: (NIH Publication No. 85-23, revised 1996).

[2] = Spontaneous withdrawal symptoms to morphine; type: in vivo, rat; conditions: JM-20 co-treatment; day 1 of withdrawal after chronic morphine
From the text: In this experiment we studied some somatic behaviors and symptoms in the rat associated with spontaneous withdrawal to morphine (jumping or escape attempts, tremors, mastication, piloerection, head shaking).

[3] = Mechanical hypernociception dose-response in CCI rats (electronic von Frey, % MPE); type: in vivo, rat; conditions: for ED50: Rattus norvegicus, 168 h, single dose, doses given in mg/kg
[4] = Mechanical allodynia dose-response in CCI rats (von Frey filaments, % MPE); type: in vivo, rat; conditions: 7 days post-CCI
[5] = Thermal hypernociception in CCI rats (Hargreaves test, % MPE); type: in vivo, rat; conditions: for % MPE, thermal hypernociception: first administration
[6] = 22 rpm, mean ± SEM, n = 6
Description: Young rats (8-10 weeks) Sprague Dawley (SD) (males, 168-240 g) from the National Center for the Production of Laboratory Animals (CENPALAB, Havana, Cuba) were used, adapted for seven days to the conditions of the laboratory. The animals were kept under an alternating cycle of light and dark every 12 h, the temperature was controlled between 25-27° C. and an EMO 1001 diet established for the laboratory animals. After the adaptation period, the animals were distributed in the different groups according to their body weights. Water and food were kept available ad libitum. […] To induce tolerance/hyperalgesia to morphine, it was administered to the animals subcutaneously (10 mg/kg, 1 mUkg, s.c.) twice a day every 12 h for 10 days or saline solution (Cao, J L et al. 2005 Pharmacol Biochem and Behay. 80: 493-503), after oral administration of JM-20 or its vehicle, carboxymethylcellulose (0.5% CMC in distilled water, 10mUkg, p.o.) 1h before. Correspondingly, the following groups were constituted: CMC-SS (n=6), CMC-MOR (n=6), JM-20-SS (n=6), JM-20 (5mg/kg)-MOR (n=6) and JM-20 (20mg/kg)-MOR (n=6).

[7] = Histopathological study of sciatic nerve (Wallerian degeneration); conditions: CCI or sham rats; hematoxylin and eosin, light microscopy
[8] = Intensity of mechanical hypernociception (electronic von Frey) in CCI or sham rats after chronic morphine or saline
[9] = General behavioral evaluation of the nervous system (placing/stepping, righting, pinna, corneal reflexes; signs of CNS depression)
[10] = day 1, 45 min after first dose of morphine or saline, 105 min after JM-20 (20 mg/kg, p.o.) or CMC
[11] = day 5, 45 min after morphine or saline dose, 105 min after JM-20 (20 mg/kg, p.o.) or CMC
[12] = day 1, 45 min after first morphine or saline dose, 105 min after JM-20 (20 mg/kg, p.o.) or CMC
[13] = day 5, 45 min after morphine or saline, 105 min after JM-20 (20 mg/kg, p.o.) or CMC

Compound: CCOC(=O)C1=C(C)NC2=C(C=Nc3ccccc3N2)C1c1ccccc1[N+](=O)[O-] (centres unmarked) [JM-20, 3-ethoxycarbonyl-2-methyl-4-(2-nitrophenyl)-4,11-dihydro-1H-pyrido [2,3-b] [1,5] benzodiazepine]
- Response to mechanical and thermal stimuli versus control group (CMC-SS) ([1]; JM-20-SS group, non-injured rats): did not show differences
- Thermal hyperalgesia (PWL, hot plate test) ([1]; healthy rats, chronic morphine + JM-20 co-treatment, at 11 days): prevented thermal hyperalgesia
- Percentage response to 4 g VFF and 15 g VFF and withdrawal threshold (Δ) ([1]; healthy rats, morphine 10 mg/kg s.c. twice a day for 10 days, JM-20 p.o. co-treatment 1 h before): significantly reduced
- Nociceptive scores in the 5% formalin test ([1]; tolerant/hyperalgesic rats, day 11, test dose of morphine 5 mg/kg i.p., both phases): significantly improved nociceptive scores
- Spontaneous somatic withdrawal symptoms after withdrawal of morphine [2]: significantly reduced
- % MPE, intensity of mechanical hypernociception ([3]; JM-20 2.5 mg/kg p.o., 60 minutes after first dose, 7 days post-CCI): 32.26±4.2%
- % MPE, intensity of mechanical hypernociception ([3]; JM-20 2.5 mg/kg p.o., 14 days post-CCI after repeated doses): 40.86±7.1%
- % MPE, intensity of mechanical hypernociception ([3]; JM-20 5 mg/kg p.o., 60 minutes after first dose, 7 days post-CCI): 48.02±6.3%
- % MPE, intensity of mechanical hypernociception ([3]; JM-20 5 mg/kg p.o., 14 days post-CCI after repeated doses): 38.13±9.4%
- % MPE, intensity of mechanical hypernociception ([3]; JM-20 10 mg/kg p.o., 60 minutes after first dose, 7 days post-CCI): 39.20±7.9%
- % MPE, intensity of mechanical hypernociception ([3]; JM-20 10 mg/kg p.o., 14 days post-CCI after repeated doses): 46.18±5.7%
- % MPE, intensity of mechanical hypernociception ([3]; JM-20 20 mg/kg p.o., 60 minutes after first dose, 7 days post-CCI): 58.15±7.3%
- % MPE, intensity of mechanical hypernociception ([3]; JM-20 20 mg/kg p.o., 14 days post-CCI after repeated doses): 55.28±8.3%
- Neuroadaptations (tolerance/hyperalgesia) after repeated administration ([3]; JM-20 p.o. for 8 days, mechanical hypernociception at days 14, 15-16 post-CCI): neuroadaptations (tolerance/hyperalgesia) were not observed
- ED50 ([3]; po, JM-20 p.o., 7 days post-CCI): 12.4 ± 6.4 mg/kg
- % MPE, mechanical allodynia ([4]; JM-20 2.5 mg/kg p.o., 1 h after first administration): 24.97±8.5%
- % MPE, mechanical allodynia ([4]; JM-20 5 mg/kg p.o., 1 h after first administration): 50.21±7.6%
- % MPE, mechanical allodynia ([4]; JM-20 10 mg/kg p.o., 1 h after first administration): 48.68±7.6%
- % MPE, mechanical allodynia ([4]; JM-20 20 mg/kg p.o., 1 h after first administration): 64.25±9.7%
- ED50 ([4]; Rattus norvegicus, po, 168 h, JM-20 p.o., single dose, doses given in mg/kg): 8.44 ± 1.9 mg/kg
- Effect on withdrawal thresholds in the Hargreaves test ([5]; JM-20 2.5-20 mg/kg p.o., after first administration or repeated doses at 14 days post-CCI): did not increase withdrawal thresholds significantly
- Rota-rod motor performance (Latency sec) [6, 10]: 59 ± 0.5^b sec
- Rota-rod motor performance (Latency sec) [6, 11]: 59 ± 0.5 s
- Rota-rod motor performance (Latency sec) ([6]; day 11, without medications): 60 s
- Qualitative histopathological changes of the sciatic nerve (Wallerian degeneration, cellularity) [7]: still exerts its neuroprotective effect
- Intensity of mechanical hypernociception, difference (Δ) of the withdrawal threshold ([8]; CCI rats, SS s/c + JM-20 10 mg/kg p.o. for 5 days, day 11 post-surgery, 6 hours after last JM-20, 10 mg/kg): 10.68±5.89 grams and 10.68 ± 5.89*≠ grams
- Intensity of mechanical hypernociception, difference (Δ) of the withdrawal threshold ([8]; CCI rats, SS s/c + JM-20 10 mg/kg p.o. for 5 days, day 23 post-surgery, 12 days after discontinuation of JM-20, 10 mg/kg): 5.93±2.65 grams and 5.93 ± 2.65*≠ grams
- Intensity of mechanical hypernociception, difference (Δ) of the withdrawal threshold ([8]; CCI rats, saline (SS) s/c + JM-20 10 mg/kg p.o. group, day 7 post-surgery, prior to start of treatments): 41.55 ± 1.50 grams
- Corneal reflex, % of animals showing the reflex [9, 12]: 100%
- Pinna reflex, % of animals showing the reflex [9, 12]: 100%
- Placing/stepping reflex, % of animals showing the reflex [9, 12]: 100%
- Righting reflex, % of animals showing the reflex [9, 12]: 100%
- Corneal reflex, % of animals showing the reflex [9, 13]: 100%
- Pinna reflex, % of animals showing the reflex [9, 13]: 100%
- Placing/stepping reflex, % of animals showing the reflex [9, 13]: 100%
- Righting reflex, % of animals showing the reflex [9, 13]: 100%
- Corneal reflex, % of animals showing the reflex ([9]; day 11, without medications): 100%
- Pinna reflex, % of animals showing the reflex ([9]; day 11, without medications): 100%
- Placing/stepping reflex, % of animals showing the reflex ([9]; day 11, without medications): 100%
- Righting reflex, % of animals showing the reflex ([9]; day 11, without medications): 100%

Compound: CN1CC[C@]23c4c5ccc(O)c4O[C@H]2[C@@H](O)C=C[C@H]3[C@H]1C5 [morphine, reference compound]
- ED50 ([3]; sc, morphine s.c., 7 days post-CCI): 5.63 ± 0.8 mg/kg
- % MPE, intensity of mechanical hypernociception ([3]; morphine 3 mg/kg s.c., 14 days post-CCI after 8 repeated doses): 1.36±0.5%
- % MPE, intensity of mechanical hypernociception ([3]; morphine 3 mg/kg s.c., first administration, 7 days post-CCI): 17.67±2.8%
- % MPE, intensity of mechanical hypernociception ([3]; morphine 5 mg/kg s.c., 14 days post-CCI after 8 repeated doses): 6.10±1.0%
- % MPE, intensity of mechanical hypernociception ([3]; morphine 5 mg/kg s.c., first administration, 7 days post-CCI): 48.05±2.9%
- % MPE, intensity of mechanical hypernociception ([3]; morphine 10 mg/kg s.c., 14 days post-CCI after 8 repeated doses): 14.18±4.7%
- % MPE, intensity of mechanical hypernociception ([3]; morphine 10 mg/kg s.c., first administration, 7 days post-CCI): 72.22±4.6%
- % MPE, mechanical allodynia ([4]; morphine 10 mg/kg s.c., first administration): 100%
- ED50 ([5]; Rattus norvegicus, sc, 168 h, morphine s.c., single dose, 7 days post-CCI, doses given in mg/kg): 3.17 ± 0.4 mg/kg
- % MPE, thermal hypernociception ([5]; morphine 3 mg/kg s.c., 7 days post-CCI): 30.0±13%
- % MPE, thermal hypernociception ([5]; morphine 10 mg/kg s.c., 7 days post-CCI): 95.69±3.4%
- Rota-rod motor performance (Latency sec) [6, 10]: 16 ± 1.9^a sec
- Rota-rod motor performance (Latency sec) [6, 11]: 57 ± 1.8 s
- Rota-rod motor performance (Latency sec) ([6]; day 11, without medications): 60 s
- Qualitative histopathological changes of the sciatic nerve (Wallerian degeneration, cellularity) [7]: minimal increase in cellularity
- Intensity of mechanical hypernociception, difference (Δ) of the withdrawal threshold ([8]; CCI rats, morphine group (vehicle p.o.), day 7 post-surgery, prior to start of treatments): 41.22±1.58 grams
- Intensity of mechanical hypernociception, difference (Δ) of the withdrawal threshold ([8]; CCI rats, morphine group (vehicle p.o.), day 7 post-surgery, prior to start of treatments, listed as MOR): 41.22 ± 1.58 grams
- Intensity of mechanical hypernociception, difference (Δ) of the withdrawal threshold ([8]; Sham CCI rats, morphine group, day 7 post-surgery, prior to start of treatments): 2.06 ± 2.96≠ grams
- Corneal reflex, % of animals showing the reflex [9, 12]: 100%
- Pinna reflex, % of animals showing the reflex [9, 12]: 100%
- Placing/stepping reflex, % of animals showing the reflex [9, 12]: 100%
- Righting reflex, % of animals showing the reflex [9, 12]: 100%
- Corneal reflex, % of animals showing the reflex [9, 13]: 100%
- Pinna reflex, % of animals showing the reflex [9, 13]: 100%
- Placing/stepping reflex, % of animals showing the reflex [9, 13]: 100%
- Righting reflex, % of animals showing the reflex [9, 13]: 100%
- Corneal reflex, % of animals showing the reflex ([9]; day 11, without medications): 100%
- Pinna reflex, % of animals showing the reflex ([9]; day 11, without medications): 100%
- Placing/stepping reflex, % of animals showing the reflex ([9]; day 11, without medications): 100%
- Righting reflex, % of animals showing the reflex ([9]; day 11, without medications): 100%

Compound: NCC1(CC(=O)O)CCCCC1 [gabapentin]
- Qualitative histopathological changes of the sciatic nerve (Wallerian degeneration, cellularity) [7]: decrease in these alterations
